The values below come from patent US11020405B2, “Method for prevention or treatment of diabetic complications” (KANGWON NATIONAL UNIVERSITY UNIVERSITY-INDUSTRY COOPERATION …, priority 2017, dated 2021).

The test system of experiment [1] is endothelial monolayer of HRECs. The experiment can be described thus: Analysis of cell permeability (FITC-dextran, Transwell). It is filed as cell-based, human. Particulars: HREC monolayer, 10 ng/mL VEGF 90 min with 20 μM midazolam, 5 μM BAPTA-AM, 1 mM NAC, 0.5 μM Trolox, 50 μM cystamine or 20 μM MDC; 40 kDa FITC-dextran 60 min (FIG. 7). How it is done: The HRECs were cultured (e.g. about 5 days) until the cell confluence thereof reached an appropriate level on gelatin-coated 0.4 μm polycarbonate membranes of Transwell Permeable Supports (Costar, Corning, N.Y.), followed by the respective treatments below and culture for 30 min. Here, treatment with 10 ng/mL VEGF was performed for 90 min. Thereafter, the HRECs were treated with 1 mg/mL 40 kDa FITC-dextran (Sigma-Aldrich), incubated for 60 min, after which the amount of FITC-dextran that was diffused into the lower chamber through the endothelial monolayer of HERCs was measured using a microplate spectrofluorometer (Molecular Devices, Sunnyvale, Calif.).

The subject of experiment [2] is human retinal endothelial cells (HRECs). As to the kind of experiment: Analysis of intracellular Ca^2+ (Fluo4-AM, confocal microscopy). It counts as cell-based. On the procedure:
(§1) Purchased from Applied Cell Biology Research Institute (Cell Systems, Kirkland, Wash.), human retinal endothelial cells (HRECs) were cultured in an M19 medium, containing 20% FBS, 3 ng/mL bFGF, 5 U/mL heparin, 100 U/mL penicillin and […], in a 2% gelatin-coated plate.
(§2) Before the following Test Examples 2 to 7, the HRECs were cultured for 6 hr in a medium containing 1% FBS and an antibiotic agent, thus preparing HRECs of Test Example 1.
With reference to FIG. 2A, the HRECs of Test Example 1 were subjected to the respective treatments below, stained with 2 μM Fluo4-AM at 37° C. for 30 min and then measured at time intervals of 10 sec using confocal microscopy (FV-300, Olympus, Tokyo, Japan).
With reference to FIG. 2B, the HRECs of Test Example 1 were subjected to the respective treatments below, cultured for 30 min, stained with 2 μM Fluo4-AM at 37° C. for 30 min and then measured at time intervals of 10 sec using confocal microscopy.

Experiment [3] concerns TGase. The experiment can be described thus: Analysis of TGase activity of cells (5-(biotinamido)pentylamine incorporation). It counts as cell-based, human. The settings on record: HRECs. How it is done: as §1, §2
With reference to FIG. 4A, the HRECs of Test Example 1 were treated with 0 to 20 μM midazolam, cultured for 2 hr, treated with 10 ng/mL VEGF, incubated for 2 hr, treated with 1 mM 5-(biotinamido)pentylamine, incubated for 1 hr, fixed with 3.7% formaldehyde, treated with 0.2% triton X-100, treated with a blocking solution containing 138 mM NaCl, 0.1% Tween 20 and 2% BSA dissolved in a 20 mM Tris (pH 7.6) buffer, incubated for 30 min, incubated for 1 hr with FITC-conjugated streptavidin (1:200, v/v), and then measured using confocal microscopy to thus determine the fluorescence intensity of single cells.
With reference to FIG. 4B, the HRECs of Test Example 1 were subjected to the respective treatments below and cultured for 30 min. Here, treatment with 10 ng/mL VEGF was performed for 2 hr. […]

Experiment [4] concerns TGase. As to the kind of experiment: Identification of receptor of midazolam through TGase activity analysis. It counts as cell-based, human. The settings on record: HRECs. How it is done:
With reference to FIG. 11A, the HRECs of Test Example 1 were subjected to the respective treatments below, cultured for 2 hr, treated with 1 mM 5-(biotinamido)pentylamine, incubated for 1 hr, fixed with 3.7% formaldehyde, treated with 0.2% triton X-100, treated with a blocking solution containing 138 mM NaCl, 0.1% Tween 20 and 2% BSA dissolved in a 20 mM Tris (pH 7.6) buffer, incubated for 30 min, incubated with FITC-conjugated streptavidin (1:200, v/v) for 1 hr, and then measured using confocal microscopy to thus determine the fluorescence intensity of single cells.
As will be described below, flumazenil was used as a GABAA receptor antagonist and PK11195 was used as a TSOP receptor antagonist.
With reference to FIG. 11B, the HRECs of Test Example 1 were treated with 0 μM, 0.01 μM, 0.1 μM, 1 μM, 10 μM, 20 μM, and 50 μM flumazenil and 0 μM, 0.01 μM, 0.1 μM, 1 μM, 3 μM, 10 μM, and 30 μM PK11195, cultured for 1 hr, treated with 20 μM midazolam, cultured for 30 min, treated with 10 ng/ml VEGF, incubated for 10 min, treated with 1 mM 5-(biotinamido)pentylamine, incubated for 1 hr, fixed with 3.7% formaldehyde, treated with 0.2% triton X-100, treated with a blocking solution containing 138 mM NaCl, 0.1% Tween 20 and 2% BSA dissolved in a 20 mM Tris (pH 7.6) buffer, incubated for 30 min, incubated with FITC-conjugated streptavidin (1:200, v/v) for 1 hr, and then measured using confocal microscopy to thus determine the fluorescence intensity of single cells.

Experiment [5] concerns human retinal endothelial cells (HRECs). The experiment can be described thus: Analysis of ROS of cells (H2DCFDA fluorescence). It is filed as cell-based. On the procedure:
as §1, §2
With reference to FIG. 3A, the HRECs of Test Example 1 were treated with 0 to 20 μM midazolam, cultured for 30 min, treated with 10 ng/mL VEGF and 10 μM H2DCFDA (Molecular Probes, Eugene, Oreg.), stained for 10 min in a phenol-red-free low-serum medium, and then measured using confocal microscopy to thus determine the fluorescence intensity of single cells.
With reference to FIG. 3B, the HRECs of Test Example 1 were subjected to the respective treatments below and cultured for 30 min. Upon treatment with 10 ng/mL VEGF, treatment with 10 μM H2DCFDA was performed therewith, or alternatively, treatment with 10 μM H2DCFDA was performed alone, followed by staining for 10 min in a phenol-red-free low-serum medium and then measurement via confocal microscopy to thus determine the fluorescence intensity of single cells.

On to `Cc1ncc2n1-c1ccc(Cl)cc1C(c1ccccc1F)=NC2` [midazolam], for which the “FITC-dextran diffused into lower chamber (cell permeability) / adherens junction disruption due to VEGF” value in experiment [1] was “prevented the adherens junction disruption due to VEGF and thus FITC-dextran was not diffused”. In experiment [2] (10 ng/ml VEGF and 20 μM midazolam together (FIG. 2A)), the “changes in intracellular Ca^2+ (VEGF-induced)” value was “no significant changes in intracellular Ca^2+”. The “changes in intracellular Ca^2+ (VEGF-induced, after washing)” value in experiment [2] (20 μM midazolam 30 min, washing with serum-free medium, then 10 ng/ml VEGF (FIG. 2A)) is “intracellular Ca^2+ elevation was caused”. In experiment [2] (20 μM midazolam alone (FIG. 2A)), the “changes in intracellular Ca^2+” value was “no significant changes in intracellular Ca^2+”. Moreover, in experiment [3] (0 to 20 μM midazolam 2 hr, then 10 ng/mL VEGF 2 hr (FIG. 4A)), the “TGase activity, concentration dependence” value is on record as “TGase activity was decreased with an increase in the concentration of midazolam”. The “TGase activity (VEGF-induced) compared to control” value in experiment [3] (10 ng/mL VEGF 2 hr with 20 μM midazolam, 5 μM BAPTA-AM, 1 mM NAC, 0.5 μM Trolox, 50 μM cystamine or 20 μM MDC (FIG. 4B)) is “substantially the same effect of inhibiting TGase activity as the TGase inhibitors cystamine and MDC”; in experiment [4] (20 μM midazolam 10 min then 10 ng/ml VEGF, no washing (FIG. 11A)) it was “no significant TGase activity increase was observed”. For the same compound, in experiment [4] (20 μM midazolam 30 min, washing with serum-free medium, then 10 ng/ml VEGF (FIG. 11A)), the “TGase activity (VEGF-induced, after washing)” value is on record as “TGase activity was increased”. Also, in experiment [5] (0 to 20 μM midazolam 30 min, then 10 ng/mL VEGF (FIG. 3A)), the “ROS concentration, concentration dependence” value is given as “ROS concentration was decreased with an increase in the concentration of midazolam”. The “ROS concentration (VEGF-induced) compared to control” value in experiment [5] (10 ng/mL VEGF with 20 μM midazolam, 5 μM BAPTA-AM, 1 mM NAC, 0.5 μM Trolox, 50 μM cystamine or 20 μM MDC (FIG. 3B)) is “no significant ROS concentration increase was observed”.
